The text below walks through data of patent publication US10414788B2, “Substituted thienopyrrolopyrimidine ribonucleosides for therapeutic use” (USTAV ORGANICKE CHEMIE A BIOCHEMIE AV CR, V.V.I., priority 2016, dated 2019).

In data set [1] the test system is U2OS (human bone osteosarcoma). Description: MTT in vitro cytotoxic test, U2OS. In kind it is cell-based. The following applies: U2OS cells. The source says:
(§1) MTT test was used for in vitro evaluation of antitumor activities of newly synthesized compounds on cell lines derived from normal tissues or tumors. Specifically, cell lines K562 (human […]), K562-Tax (human […] myeloid leukemia, paclitaxel resistant subline, overexpress multiple drug resistant protein PgP), CEM (T-lymfoblastic leukemia), CEM-DNR-bulk (T-lymfoblastic leukemia, doxorubicin resistant), A549 (human lung adenocarcinoma), HCT116 wt (human colorectal cancer, wild-type), HCT116p53−/−(human colorectal cancer, mutant p53) a U2OS (human bone osteosarcoma) were used.
(§2) Express characteristics, susceptibility profiles of classic antitumor drugs as well as methodology of cytotoxic MTT test have been repeatedly published {ref.:Noskova, V.; Dzubak, P.; Kuzmina, G.; Ludkova, A.; Stehlik, D.; Trojanec, R.; Janostakova, A.; Korinkova, G.; Mihal, V.; Hajduch, M., Neoplasma 2002, 49, 418-425}.

For data set [2], the system named is HCT116 wt (human colorectal cancer, wild-type). In words: MTT in vitro cytotoxic test, HCT116. The following applies: HCT-116, HCT116 cells (p53 wild type). The class given is cell-based.
Source text: as §1, §2

The subject of data set [3] is K562 (human acute myeloid leukemia). Description: MTT in vitro cytotoxic test, K562. The conditions noted are these: K562 cells. The class given is cell-based.
Source text: as §1, §2

The subject of data set [4] is HCT116p53−/− (human colorectal cancer, mutant p53). Description: MTT in vitro cytotoxic test, HCT116p53. The class given is cell-based. The following applies: HCT116p53−/− cells.
Source text: as §1, §2

Data set [5] has as its system A549 (human lung adenocarcinoma). Description: MTT in vitro cytotoxic test, A549. The class given is cell-based. The following applies: A549 cells.
Source text: as §1, §2

Data set [6] relates to K562-Tax (human acute myeloid leukemia, paclitaxel resistant subline). In words: MTT in vitro cytotoxic test, K562-TAX. In kind it is cell-based. The following applies: K562-TAX cells (paclitaxel resistant).
Source text: as §1, §2

Data set [7] has as its system CCRF-CEM (CEM, T-lymfoblastic leukemia). Description: MTT in vitro cytotoxic test, CCRF-CEM. The class given is cell-based. The following applies: Homo sapiens, CCRF-CEM cells.
Source text: as §1, §2

Data set [8] concerns CEM-DNR-bulk (T-lymfoblastic leukemia, doxorubicin resistant). Description: MTT in vitro cytotoxic test, CEM-DNR. The class given is cell-based. The following applies: Homo sapiens, CEM-DNR cells (doxorubicin resistant).
Source text: as §1, §2

Data set [9] concerns cancer cell lines of various histogenetic origin. Description: In vitro cytotoxic test, summary over cancer cell lines. The class given is cell-based, human. The conditions noted are these: text summary of Table 4.
Source text: as §1, §2

On to `OC[C@H]1O[C@@H](n2c3ncnc(-c4ccco4)c3c3ccsc32)[C@H](O)[C@@H]1O` [Compound 1a, 4-(Furan-2-yl)-8-(β-D-ribofuranosyl)-8H-thieno[3′,2′:4,5]pyrrolo[2,3-d]pyrimidine], for which the IC50 in data set [1], in [2], in [3], in data set [4], in [5] and in data set [6] was 25 to 50 µM in each case. Further, the half-inhibitory concentration (IC50) in data set [7] and in [8] was 25 to 50 µM in each case.

With `OC[C@H]1O[C@@H](n2c3ncnc(-c4ccoc4)c3c3ccsc32)[C@H](O)[C@@H]1O` [Compound 1b, 4-(Furan-3-yl)-8-(β-D-ribofuranosyl)-8H-thieno[3′,2′:4,5]pyrrolo[2,3-d]pyrimidine], the IC50 in data set [1], in data set [2], in [3], in data set [4], in data set [5] and in data set [6] was 25 to 50 µM in each case. Besides, the IC50 in [7] and in [8] was 25 to 50 µM in each case.

With `OC[C@H]1O[C@@H](n2c3ncnc(-c4cc5ccccc5o4)c3c3ccsc32)[C@H](O)[C@@H]1O` [Compound 1c, 4-(Benzofuran-2-yl)-8-(β-D-ribofuranosyl)-8H-thieno[3′,2′:4,5]pyrrolo[2,3-d]pyrimidine], the IC50 fell in the range of 25 to 50 µM in data set [1]; 25 to 50 µM in data set [2]; 25 to 50 µM in data set [3]; 25 to 50 µM in data set [4]; 25 to 50 µM in [5]; 10 to 25 µM in data set [6]. Also, the 50% inhibitory concentration (IC50) in data set [7] and in data set [8] was 10 to 25 µM in each case. Further, the “IC50 values (range in words)” value in data set [9] is “micromolar range”.

In the case of `Cc1ncnc2c1c1ccsc1n2[C@@H]1O[C@H](CO)[C@@H](O)[C@H]1O` [Compound 1d, 4-Methyl-8-(β-D-ribofuranosyl)-8H-thieno[3′,2′:4,5]pyrrolo[2,3-d]pyrimidine], the melting point lay within 126 to 128 °C. Further, the 50% inhibitory concentration (IC50) in data set [1] is 0.01 to 0.2 µM. The compound also yielded a concentration for half-maximal inhibition (IC50) in data set [2] of 0.2 to 0.9 µM. This compound also returned an IC50 in data set [3] of 0.01 to 0.2 µM. The IC50 in data set [4] is 0.2 to 0.9 µM. Besides, the concentration for half-maximal inhibition (IC50) in [5] fell in the range of 0.2 to 0.9 µM. In data set [6], the IC50 fell in the range of 0.9 to 10 µM. In data set [7], this compound yielded an IC50 of 0.01 to 0.2 µM. In addition, the “IC50 values (range in words)” value in data set [9] is recorded as “sub-micromolar to nanomolar”. In data set [8], the IC50 fell in the range of 25 to 50 µM.

With `CN(C)c1ncnc2c1c1ccsc1n2[C@@H]1O[C@H](CO)[C@@H](O)[C@H]1O` [Compound 1e, 4-(N,N-dimethylamino)-8-(β-D-ribofuranosyl)-8H-thieno[3′,2′:4,5]pyrrolo[2,3-d]pyrimidine], the melting point worked out at 117 °C. The compound also returned an IC50 in data set [1] of 25 to 50 µM. In [2], this compound showed a half-maximal inhibitory concentration (IC50) of 25 to 50 µM. In [3], this compound yielded an IC50 of 25 to 50 µM. Besides, the 50% inhibitory concentration (IC50) in data set [4] lay within 25 to 50 µM. Further, the IC50 in [5] lay within 25 to 50 µM. The compound further gave an IC50 in data set [6] of 25 to 50 µM. Also, the concentration for half-maximal inhibition (IC50) in data set [7] lay within 25 to 50 µM. The same compound displayed a 50% inhibitory concentration (IC50) in [8] of 25 to 50 µM.

In the case of `Nc1ncnc2c1c1ccsc1n2[C@@H]1O[C@H](CO)[C@@H](O)[C@H]1O` [Compound 1f, 4-Amino-8-(β-D-ribofuranosyl)-8H-thieno[3′,2′:4,5]pyrrolo[2,3-d]pyrimidine], the melting point was determined as 98 °C. In [1], this compound gave a concentration for half-maximal inhibition (IC50) of 0.2 to 0.9 µM. The same compound had a concentration for half-maximal inhibition (IC50) in [2] of 25 to 50 µM. In addition, in data set [3], the concentration for half-maximal inhibition (IC50) lay in the range of 25 to 50 µM. In addition, in data set [4], the half-inhibitory concentration (IC50) lay within 0.9 to 10 µM. Also, in data set [5], the half-inhibitory concentration (IC50) was in the range of 25 to 50 µM. The concentration for half-maximal inhibition (IC50) in data set [6] is 0.2 to 0.9 µM. Moreover, the half-maximal inhibitory concentration (IC50) in data set [7] was in the range of 0.2 to 0.9 µM. Besides, the “IC50 values (range in words)” value in data set [9] is “micromolar range”. Besides, in [8], the half-inhibitory concentration (IC50) lay within 25 to 50 µM.

`COc1ncnc2c1c1ccsc1n2[C@@H]1O[C@H](CO)[C@@H](O)[C@H]1O` [Compound 1g, 4-Methoxy-8-(β-D-ribofuranosyl)-8H-thieno[3′,2′:4,5]pyrrolo[2,3-d]pyrimidine] registered a melting point of 159 to 160 °C. This compound also gave an IC50 in data set [1] of 0.01 to 0.2 µM. For the same compound, the IC50 in data set [2] lay in the range of 0.2 to 0.9 µM. This compound also registered an IC50 in data set [3] of 0.2 to 0.9 µM. For the same compound, in [4], the IC50 lay within 0.2 to 0.9 µM. In [5], the IC50 is 0.9 to 10 µM. The half-inhibitory concentration (IC50) in data set [6] was 10 to 25 µM. In data set [7], this compound gave an IC50 of 0.01 to 0.2 µM. The “IC50 values (range in words)” value in data set [9] is reported as “sub-micromolar to nanomolar”. In addition, in [8], the half-maximal inhibitory concentration (IC50) lay in the range of 25 to 50 µM.

`CSc1ncnc2c1c1ccsc1n2[C@@H]1O[C@H](CO)[C@@H](O)[C@H]1O` [Compound 1h, 4-(Methylsulfanyl)-8-(β-D-ribofuranosyl)-8H-thieno[3′,2′:4,5]pyrrolo[2,3-d]pyrimidine] returned a melting point of 148 to 152 °C. This compound also gave an IC50 in data set [1] of 0.01 to 0.2 µM. This compound also came in with an IC50 in data set [2] of 0.01 to 0.2 µM. Also, the IC50 in [3] lay within 0.2 to 0.9 µM. Also, the IC50 in data set [4] lay in the range of 0.2 to 0.9 µM. In data set [5], this compound gave a concentration for half-maximal inhibition (IC50) of 0.2 to 0.9 µM. This compound also showed a half-maximal inhibitory concentration (IC50) in [6] of 10 to 25 µM. The compound also came in with an IC50 in data set [7] of 0.01 to 0.2 µM. The “IC50 values (range in words)” value in data set [9] is “sub-micromolar to nanomolar”. The IC50 in data set [8] was in the range of 25 to 50 µM.
